Measured values taken from patent US20240000879A1, “HERBAL COMPOSITIONS WITH IMPROVED BIOAVAILABILITY” (priority 2017, published 2024).

Experiment: Herbal composition/SNAC oral rat pharmacokinetic (PK) study (Example 5)
Type: in vivo
Conditions: rats; for increase in AUC0-Tlast / increase in Cmax: oral, 50 mg/kg cannabis extract + 500 mg/kg SNAC; for time to reach the mean maximum plasma concentration (Tmax): single oral gavage
Description: Example 5. Summary of an herbal composition/SNAC oral rat pharmacokinetic (PK) study.
Methods. Animals were dosed on Day 1 and a series of blood samples were collected over a period of 4 hours post dose for pharmacokinetic evaluation. Animals were euthanized following collection of their last blood sample.

C=C(C)[C@@H]1CCC(C)=C[C@H]1c1c(O)cc(CCCCC)cc1O [CBD]
increase in AUC0-Tlast: 22.1 fold | increase in Cmax: 14.2 fold

CCCCCc1cc(O)c2c(c1)OC(C)(C)[C@@H]1CCC(C)=C[C@@H]21 [THC]
increase in AUC0-Tlast: 6.3 fold | increase in Cmax: 6.9 fold | time to reach the mean maximum plasma concentration (Tmax) (high dose group (50 mg extract/kg + 500 mg SNAC/kg)): 2 hours post dose | time to reach the mean maximum plasma concentration (Tmax) (low and mid dose groups (25 mg extract/kg + 250 or 500 mg SNAC/kg)): 1 hour post dose
